This is an account of results in patent US11872202B2, “Pleuromutilin cinnamic acid ester compounds with activities against antibiotic-resistant infections” (SHAANXI UNIVERSITY OF SCIENCE AND TECHNOLOGY, priority 2021, dated 2024).

≈ marks a conversion by molar mass, not a printed value. Where two headings read alike, the source gives them in different places.

What all share (test): MIC, micro-broth dilution method
Holding throughout (format): cell-based
Background: In broth dilution the organism is exposed to a series of concentrations in liquid medium.

In experiment [1] the test system is Staphylococcus aureus ATCC29213. On the procedure:
(§1) The minimum inhibitory concentration (MIC) of pleuromutilin cinnamate easters and their starting materials was tested by a micro-broth dilution method, with retamoline, vornimulin and tiamulin as positive controls.
(§2) The experimental strains included Gram-positive bacteria: Methicillin-sensitive Staphylococcus epidermidis ATCC12228, Staphylococcus aureus ATCC29213 and ATCC25923, and Methicillin-resistant Staphylococcus aureus ATCC33591; Gram-negative bacteria: Acinetobacter baumannii ATCC19606 and E. coli Bacillus ATCC25922 (the strains used were from the American type culture collection (ATCC)).

Experiment [2] deals with Methicillin-resistant Staphylococcus aureus ATCC33591. The protocol:
as §1, §2

Experiment [3] has as its system Escherichia coli ATCC25922. On the procedure:
as §1, §2

In experiment [4] the test system is Methicillin-sensitive Staphylococcus epidermidis ATCC12228. On the procedure: as §1, §2
Experiment [5] relates to Acinetobacter baumannii ATCC19606. The protocol:
as §1, §2

Experiment [6] has as its system Staphylococcus aureus ATCC25923. The protocol: as §1, §2
[7] abbreviates: Staphylococcus aureus ATCC29213, 37° C., 20-22 h, read-out: Minimum inhibitory concentration.
Setting [8] is: Methicillin-resistant Staphylococcus aureus ATCC33591, 37° C., 20-22 h, read-out: Minimum inhibitory concentration.
Setting [9] is: Escherichia coli ATCC25922, 37° C., 20-22 h, read-out: Minimum inhibitory concentration.
Setting [10] is: Methicillin-sensitive Staphylococcus epidermidis ATCC12228, 37° C., 20-22 h, read-out: Minimum inhibitory concentration.
The mark [11] stands for this setting: Acinetobacter baumannii ATCC19606, 37° C., 20-22 h, read-out: Minimum inhibitory concentration.
[12] abbreviates: Staphylococcus aureus ATCC25923, 37° C., 20-22 h, read-out: Minimum inhibitory concentration.
Where [13] appears, read: Staphylococcus aureus, ATCC29213, read-out: Minimum inhibitory concentration.
[14] abbreviates: Staphylococcus aureus, ATCC33591, read-out: Minimum inhibitory concentration.
Setting [15] is: Escherichia coli, ATCC25922, read-out: Minimum inhibitory concentration.
The mark [16] stands for this setting: Staphylococcus epidermidis, ATCC12228, read-out: Minimum inhibitory concentration.
The mark [17] stands for this setting: Acinetobacter baumannii, ATCC19606, read-out: Minimum inhibitory concentration.
[18] abbreviates: Staphylococcus aureus, ATCC25923, read-out: Minimum inhibitory concentration.

Take `C=C[C@]1(C)C[C@@H](OC(=O)COC(=O)/C=C/c2ccc(Cn3ccnc3)cc2)[C@]2(C)[C@H](C)CC[C@]3(CCC(=O)[C@H]32)[C@@H](C)[C@@H]1O` [Compound 17]: the MIC in experiment [1] (setting [7]) worked out at 16 µg/mL (≈ 27.2 µM); in experiment [2] (setting [8]), 32 µg/mL (≈ 54.4 µM); in experiment [3] (setting [9]), 64 µg/mL (≈ 109 µM); in experiment [4] (setting [10]) it was 16 µg/mL (≈ 27.2 µM); in experiment [5] (setting [11]), 128 µg/mL (≈ 217 µM); in experiment [6] (setting [12]), 8 µg/mL (≈ 13.6 µM).
With `C=C[C@]1(C)C[C@@H](OC(=O)CS[C@@H]2C[C@H]3CC[C@@H](C2)N3C)[C@]2(C)[C@H](C)CC[C@]3(CCC(=O)[C@H]32)[C@@H](C)[C@@H]1O` [Retapamulin, reference compound], the MIC was 4 µg/mL (≈ 7.73 µM) in experiment [1] (setting [13]); 32 µg/mL (≈ 61.8 µM) in experiment [2] (setting [14]); 32 µg/mL (≈ 61.8 µM) in experiment [3] (setting [15]); 32 µg/mL (≈ 61.8 µM) in experiment [4] (setting [16]); 16 µg/mL (≈ 30.9 µM) in experiment [5] (setting [17]); 4 µg/mL (≈ 7.73 µM) in experiment [6] (setting [18]).
`C=C[C@]1(C)C[C@@H](OC(=O)COC(=O)/C=C/c2ccc(F)c(Cl)c2)[C@]2(C)[C@H](C)CC[C@]3(CCC(=O)[C@H]32)[C@@H](C)[C@@H]1O` [Compound 20, (E)-2-(((3aR,4R,5R,8S,9R,12R)-8-hydroxy-4,7,9,12-tetramethyl-3-oxo-7-vinyldecahydro-4,9a-propanocyclopenta[8]annulen-5-yl)oxy)-2-oxoethyl 3-(3-chloro-4-fluorophenyl)acrylate]: the MIC in experiment [1] (setting [7]) was 32 µg/mL (≈ 57 µM); in experiment [2] (setting [8]), 64 µg/mL (≈ 114 µM); in experiment [3] (setting [9]) it was 64 µg/mL (≈ 114 µM); in experiment [4] (setting [10]), 32 µg/mL (≈ 57 µM); in experiment [5] (setting [11]), greater than 256 µg/mL; in experiment [6] (setting [12]) it was 16 µg/mL (≈ 28.5 µM).
In the case of `C=C[C@]1(C)C[C@@H](OC(=O)CSC(C)(C)CNC(=O)[C@H](N)C(C)C)[C@]2(C)[C@H](C)CC[C@]3(CCC(=O)[C@H]32)[C@@H](C)[C@@H]1O` [Valnemulin, reference compound], the MIC in experiment [1] (setting [13]) was 2 µg/mL (≈ 3.54 µM); in experiment [2] (setting [14]), greater than 256 µg/mL; in experiment [3] (setting [15]), 16 µg/mL (≈ 28.3 µM); in experiment [4] (setting [16]), 64 µg/mL (≈ 113 µM); in experiment [5] (setting [17]), 2 µg/mL (≈ 3.54 µM); in experiment [6] (setting [18]), 4 µg/mL (≈ 7.08 µM).
With `C=C[C@]1(C)C[C@@H](OC(=O)COC(=O)/C=C/c2ccc(C(F)(F)F)cc2)[C@]2(C)[C@H](C)CC[C@]3(CCC(=O)[C@H]32)[C@@H](C)[C@@H]1O` [Compound 15, (E)-2-(((3aR,4R,5R,8S,9R,12R)-8-hydroxy-4,7,9,12-tetramethyl-3-oxo-7-vinyldecahydro-4,9a-propanocyclopenta[8]annulen-5-yl)oxy)-2-oxoethyl 3-(4-(trifluoromethyl)phenyl)acrylate], the MIC in experiment [1] (setting [7]) was 16 µg/mL (≈ 27.7 µM); in experiment [2] (setting [8]), 128 µg/mL (≈ 222 µM); in experiment [3] (setting [9]) it was 64 µg/mL (≈ 111 µM); in experiment [4] (setting [10]), 8 µg/mL (≈ 13.9 µM); in experiment [5] (setting [11]), greater than 256 µg/mL; in experiment [6] (setting [12]), 16 µg/mL (≈ 27.7 µM). Further, the “inhibitory effect compared with the three tested positive controls” value in experiment [4] (methicillin-sensitive Staphylococcus epidermidis, statement in words from Table 1) was “better than that of the positive controls”.
